Consider one molecule from paper PMC12442009, “Self-Assembling Cyclic Peptide Nanotubes for the Delivery of Doxorubicin into Drug-Resistant Cancer Cells” (ACS Applied Materials & Interfaces, 2025).

In data set [1] the test system is NCI-H460 (lung cancer cell line). To be noted: NCI-H460, 48 h incubation, MTT; inhibition at highest concentration tested (100 μM).
Method: (§1) The cell growth inhibition of each compound was evaluated using the MTT (3-[4,5-dimethylthiazol-2-yl]-2,5-diphenyltetrazolium bromide) assay. MCF-7 and MRC-5 cells were grown on a Minimum Essential Medium Eagle, while NCI-H460 and NCI/ADR-RES cells were grown on RPMI 1640 culture medium. All culture mediums were supplemented with 10% FBS (fetal bovine serum) and 1% penicillin-streptomycin-glutamine mix. […] MCF-7 (100,000 cells/mL), NCI-H460 (150,000 cells/mL), NCI/ADR-RES (150,000 cells/mL), or MRC-5 (100,000 cells/mL) cells were seeded the day before in sterile 96-well plates (100 μL/well). Then, cells were incubated with each concentration of the compound (100 μL/well) for the specified time for each cell line. The compounds were previously dissolved in DMSO and diluted at the time of the experiment with complete medium to the concentration to be tested. The DMSO content of each well was maintained at less than 1%. All concentrations were carried out with triplicate points, and controls with DMSO at the same proportion in which the compounds were dissolved were included in all experiments. After the incubation time, the samples were removed, and 100 μL of complete medium with 0.5 mg/mL MTT was added to each well. Cells were incubated for 4 h, and the medium was removed. The resulting formazan crystals were dissolved in DMSO (100 μL/well). The absorbance of each well at 595 nm was acquired with a Tecan Infinite F200Pro plate reader. A blank subtraction was performed (cells treated with Triton X-100), and the data were normalized to the value of the untreated cells (100% viability). Data were analyzed with GraphPad Prism software.
Data set [2] relates to MCF-7 (breast cancer cell line). As to the kind of experiment: MTT cell growth inhibition, MCF-7. The class given is cell-based. To be noted: MCF-7, 96 h incubation, MTT.
Method: as §1
Data set [3] concerns NCI-H460 (lung cancer cell line). As to the kind of experiment: cells. To be noted: Homo sapiens, NCI-H460, 48 h.
Method: as §1
Data set [4] deals with NCI/ADR-RES (doxorubicin-resistant ovarian cancer cell line). As to the kind of experiment: MTT cell growth inhibition, NCI/ADR-RES. The class given is cell-based. To be noted: NCI/ADR-RES, 48 h incubation, MTT, inhibition at highest concentration tested (100 μM).
Method: as §1
In data set [5] the test system is NCI/ADR-RES cells. As to the kind of experiment: Confocal microscopy internalization and colocalization. The note with it: 50 μM, 2 h.
For data set [6], the system named is MRC-5 (human embryonic lung cell line). As to the kind of experiment: MTT cytotoxicity in noncancerous fibroblasts MRC-5. The note with it: MRC-5 fibroblasts, 7 days incubation. The class given is cell-based.
Data set [7] relates to NCI/ADR-RES cells. Put plainly: Cell uptake by RP-HPLC of cell lysates. To be noted: 100 μM, 120 min, 37 °C minus 4 °C, ACN/H2O extraction, RP-HPLC 460 nm, normalized vs initial concentration incubated.
Method: NCI/ADR-RES cells (10^6) were seeded in T-25 Flasks. After 24 h, the medium was removed, and a solution of DOX or CP1T NBD -DOX (100 μM) in culture medium (7 mL) was added. The cells were incubated for 120 min at 37 °C under a CO2 atmosphere (5%). Then, the medium was removed, and the cells were washed with cold PBS (3 × 3 mL). After washing, a mixture of ACN/H2O (1.5 mL, 80:20) was added to the flask and incubated overnight at 4 °C. Solvent samples were transferred to 1.5 mL Eppendorf and centrifuged at 12,000 g for 15 min at 4 °C, and the supernatant was evaporated to dryness. Analogous experiments were carried out by incubating the compounds at 4 °C for 120 min to determine the nonspecific binding to the cell membrane, since the uptake is decreased at this temperature. To evaluate the efficiency of solvent extraction, 10^6 cells were seeded in a T-25 Flask. […] The resulting lysates were analyzed by RP-HPLC by dissolving the Eppendorf samples in an aqueous solution of TFA (1%, 100 μL). All of the intracellular compound quantities were calculated from the detected area and divided by the efficiency of solvent extraction. Cell uptake was calculated by subtracting the intracellular compound quantity from the assay carried out at 37 °C from the quantity obtained at 4 °C and normalized to 100% vs the initial concentration incubated.

What is called IC50 is the midpoint of a concentration-inhibition curve.

With `COc1cccc2c1C(=O)c1c(O)c3c(c(O)c1C2=O)C[C@@](O)(C(=O)CO)C[C@@H]3O[C@H]1C[C@H](N)[C@H](O)[C@H](C)O1` [DOX, doxorubicin], the “E max (% inhibition)” value in data set [1] came to 56 ± 1 % inhibition; in data set [2] (inhibition at highest concentration tested (100 μM), triplicate points), 86 ± 1 % inhibition; in data set [4] it was 36 ± 4 % inhibition; in data set [4] (listed as doxorubicin), 36 % inhibition. Also, the 50% inhibitory concentration (IC50) was 820 ± 100 nM in data set [2] (Homo sapiens, MCF7, 50% growth inhibition, calculated only if E max > 50%, read-out: IC50) and 9.3 ± 1.7 µM in data set [3]. Further, the “cell internalization / localization by confocal microscopy” value in the data set on NCI/ADR-RES cells [5] was “no significant internalization”. Besides, in data set [6], the “cytotoxicity in MRC-5” value is “significant cytotoxicity”. In addition, in the data set on NCI/ADR-RES cells [7], the cell uptake came out at 21.56%.
